Data on 50 molecules can be found in patent US8399480B2, “Hydroxymethyl pyrrolidines as beta 3 adrenergic receptor agonists” (Merck Sharp & Dohme Corp., priority 2008, dated 2013).

Each structure is given as a SMILES string. Like-named read-outs stand apart in the source and are kept apart here.

The target in the assay is T1, human β3 adrenergic receptor (Homo sapiens, UniProt P13945).
T1 construct: expressed in transfected cells; host or cells: Chinese hamster ovary (CHO) cells, stably transfected
T1 sequence (P13945 whole entry): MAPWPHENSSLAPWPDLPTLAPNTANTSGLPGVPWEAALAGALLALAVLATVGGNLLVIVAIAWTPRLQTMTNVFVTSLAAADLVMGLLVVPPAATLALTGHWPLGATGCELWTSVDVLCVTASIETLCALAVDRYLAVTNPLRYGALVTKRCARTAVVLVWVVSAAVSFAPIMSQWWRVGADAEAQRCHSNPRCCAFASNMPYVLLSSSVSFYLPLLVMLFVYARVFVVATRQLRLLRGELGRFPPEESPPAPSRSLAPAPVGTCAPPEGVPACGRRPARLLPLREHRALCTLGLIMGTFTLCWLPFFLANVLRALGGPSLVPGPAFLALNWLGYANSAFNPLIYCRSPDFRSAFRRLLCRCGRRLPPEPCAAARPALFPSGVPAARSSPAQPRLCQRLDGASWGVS
Description: Functional assay: cAMP production (LANCE TR-FRET) in CHO cells stably transfected with cloned β3 adrenergic receptor. It counts as cell-based. How it is done: Chinese hamster ovary (CHO) cells, stably transfected with the cloned β-adrenergic receptor (β1, β2 or β3) are harvested after 3 days of subculturing. Harvesting of cells is done with Enzyme-free Dissociation Media (Specialty Media). Cells are then counted and resuspended in assay buffer (Hank's Balanced salt solution supplemented with 5 mM HEPES, 0.1% BSA) containing a phosphodiesterase inhibitor (IBMX, 0.6 mM). The reaction is initiated by mixing 6,000 cells in 6 μL with 6 μL Alexa Fluor labeled cAMP antibody (LANCE™ kit) which is then added to an assay well containing 12 μL of compound (diluted in assay buffer to 2× final concentration). The reaction proceeds for 30 min at room temperature and is terminated by the addition of 24 μL detection buffer (LANCE™ kit). The assay plate is then incubated for 1 h at room temperature and time-resolved fluorescence measured on a Perkin Elmer Envision reader or equivalent. The unknown cAMP level is determined by comparing fluorescence levels to a cAMP standard curve.
The non-selective, full agonist β-adrenergic ligand isoproterenol is used at all three receptors to determine maximal stimulation. […] Data are analyzed using Microsoft Excel and Graphpad Prism or an internally developed data analysis software package.
A general note: cAMP levels reflect the balance of adenylyl cyclase and phosphodiesterase activity.

Setting [1] is: Table 5, read-out: Human β3 Functional.
The mark [2] stands for this setting: Table 6, read-out: Human β3 Functional.
The mark [3] stands for this setting: given as a range, cAMP, CHO cells, read-out: human β3 functional activity.
The mark [4] stands for this setting: Table 10, β3AR-cAMP, read-out: Human β3 Functional.
[5] abbreviates: Table 11, read-out: Human β3 Functional.
The mark [6] stands for this setting: Table 12, read-out: Human β3 Functional.
Where [7] appears, read: human β3 functional activity, shown as ranges, Table 13, read-out: Human β3 Functional.
Setting [8] is: human β3 functional activity, shown as ranges, Table 14, read-out: Human β3 Functional.
Setting [9] is: Table 4, human β3 functional activity, read-out: Human β Binding.

For `CCC(C(=O)Nc1ccc(C[C@@H]2CC[C@H]([C@H](O)c3ccccc3)N2)cc1)n1nccn1` (single isomer, unassigned) [Example 217], the EC50 under setting [1] was 1 to 10 nM.

With `CCC(C(=O)Nc1ccc(C[C@@H]2CC[C@H]([C@H](O)c3ccccc3)N2)cc1)n1cccn1` (single isomer, unassigned) [Example 218], under setting [1], the EC50 lay in the range of 1 to 10 nM.

Take `CCC(C(=O)Nc1ccc(C[C@@H]2CC[C@H]([C@H](O)c3ccccc3)N2)cc1)n1cccn1` (single isomer, unassigned) [Example 219]: the EC50 under setting [1] fell in the range of 1 to 10 nM.

Take `COCCC(C(=O)Nc1ccc(C[C@@H]2CC[C@H]([C@H](O)c3ccccc3)N2)cc1)n1cccn1` (single isomer, unassigned) [Example 223]: the EC50 under setting [1] lay in the range of 1 to 10 nM.

In the case of `COCCC(C(=O)Nc1ccc(C[C@@H]2CC[C@H]([C@H](O)c3ccccc3)N2)cc1)n1cccn1` (single isomer, unassigned) [Example 224], under setting [1], the EC50 is 11 to 100 nM.

For `Nc1nc2c(s1)CCCC2C(=O)Nc1ccc(CC2CCC(C(O)c3ccccc3)N2)cc1` (single isomer, unassigned) [Example 227], under setting [2], the EC50 was 101 to 1000 nM.

On to `Nc1nc2c(s1)CCCC2C(=O)Nc1ccc(CC2CCC(C(O)c3ccccc3)N2)cc1` (single isomer, unassigned) [Example 228], for which, under setting [2], the EC50 lay within 1000 to 3000 nM.

In the case of `Cc1nc2c(s1)CCCC2C(=O)Nc1ccc(CC2CCC(C(O)c3ccccc3)N2)cc1` (single isomer, unassigned) [Example 231], the EC50 under setting [2] was in the range of 101 to 1000 nM.

As for `Cc1nc2c(s1)CCCC2C(=O)Nc1ccc(CC2CCC(C(O)c3ccccc3)N2)cc1` (single isomer, unassigned) [Example 232], the EC50 under setting [2] is 1000 to 3000 nM.

As for `CC(C(=O)Nc1ccc(C[C@@H]2CC[C@H]([C@H](O)c3cccc(F)c3)N2)cc1)c1cscn1` (single isomer, unassigned) [Example 274], the EC50 under setting [3] is 11 to 100 nM.

For `CC(C(=O)Nc1ccc(C[C@@H]2CC[C@H]([C@H](O)c3cccc(F)c3)N2)cc1)c1cscn1` (single isomer, unassigned) [Example 275], the EC50 under setting [3] is less than 1 nM.

Regarding `Nc1nc2c(s1)CCC2C(=O)Nc1ccc(CC2CCC(C(O)c3cccc(F)c3)N2)cc1` (single isomer, unassigned) [Example 276], under setting [4], the EC50 was 11 to 100 nM.

As for `Nc1nc2c(s1)CCC2C(=O)Nc1ccc(CC2CCC(C(O)c3cccc(F)c3)N2)cc1` (single isomer, unassigned) [Example 277], the EC50 under setting [4] is less than 1 nM.

For the molecule `Nc1nc2c(s1)CCC2C(=O)Nc1ccc(CC2CCC(C(O)c3ccc(F)cc3)N2)cc1` (single isomer, unassigned) [Example 282], the EC50 under setting [5] is 11 to 100 nM.

In the case of `Nc1nc2c(s1)CCC2C(=O)Nc1ccc(CC2CCC(C(O)c3ccc(F)cc3)N2)cc1` (single isomer, unassigned) [Example 283], under setting [5], the EC50 is less than 1 nM.

In the case of `CC(C(=O)Nc1ccc(CC2CCC(C(O)c3ccc(F)cc3)N2)cc1)c1cscn1` (single isomer, unassigned) [Example 285], the EC50 under setting [5] was 11 to 100 nM.

For `CC(C(=O)Nc1ccc(CC2CCC(C(O)c3ccc(F)cc3)N2)cc1)c1cscn1` (single isomer, unassigned) [Example 286], the EC50 under setting [5] is less than 1 nM.

`Nc1nc2c(s1)CCC2C(=O)Nc1ccc(CC2CCC(C(O)c3ccc(F)c(F)c3)N2)cc1` (single isomer, unassigned) [Example 288]: the EC50 under setting [6] was in the range of 11 to 100 nM.

`Nc1nc2c(s1)CCC2C(=O)Nc1ccc(CC2CCC(C(O)c3ccc(F)c(F)c3)N2)cc1` (single isomer, unassigned) [Example 289]: under setting [6], the EC50 is less than 1 nM.

As for `Nc1nc2c(s1)CCC2C(=O)Nc1ccc(CC2CCC(C(O)c3ccc(F)c(F)c3)N2)cc1` (single isomer, unassigned) [Example 291], the EC50 under setting [6] was in the range of 11 to 100 nM.

As to `Nc1nc2c(s1)CCC2C(=O)Nc1ccc(CC2CCC(C(O)c3ccc(F)c(F)c3)N2)cc1` (single isomer, unassigned) [Example 292], under setting [6], the EC50 is less than 1 nM.

On to `Nc1nc2c(s1)CCC2C(=O)Nc1ccc(CC2CCC(C(O)c3cccc(Cl)c3)N2)cc1` (single isomer, unassigned) [Example 294], for which, under setting [7], the EC50 lay within 11 to 100 nM.

In the case of `Nc1nc2c(s1)CCC2C(=O)Nc1ccc(CC2CCC(C(O)c3cccc(Cl)c3)N2)cc1` (single isomer, unassigned) [Example 295], the EC50 under setting [7] was less than 1 nM.

In the case of `O=C(Nc1ccc(CC2CCC(C(O)c3cccc(Cl)c3)N2)cc1)C1CCc2sc(Br)nc21` (single isomer, unassigned) [Example 298], under setting [7], the EC50 is less than 1 nM.

For `O=C(Nc1ccc(CC2CCC(C(O)c3cccc(Cl)c3)N2)cc1)C1CCc2sc(Br)nc21` (single isomer, unassigned) [Example 299], under setting [7], the EC50 was in the range of 11 to 100 nM.

For `O=C(Nc1ccc(CC2CCC(C(O)c3cccc(Cl)c3)N2)cc1)C1CCc2sc(F)nc21` (single isomer, unassigned) [Example 300], the EC50 under setting [7] was 1 to 10 nM.

On to `O=C(Nc1ccc(CC2CCC(C(O)c3cccc(Cl)c3)N2)cc1)C1CCc2sc(F)nc21` (single isomer, unassigned) [Example 301], for which, under setting [7], the EC50 is 11 to 100 nM.

As to `CC(C(=O)Nc1ccc(CC2CCC(C(O)c3cccc(Cl)c3)N2)cc1)c1cscn1` (single isomer, unassigned) [Example 302], the EC50 under setting [7] was in the range of 1 to 10 nM.

Regarding `CC(C(=O)Nc1ccc(CC2CCC(C(O)c3cccc(Cl)c3)N2)cc1)c1cscn1` (single isomer, unassigned) [Example 303], the EC50 under setting [7] lay within 11 to 100 nM.

As for `Nc1nc2c(s1)CCC2C(=O)Nc1ccc(CC2CCC(C(O)c3cccc(F)c3)N2)cc1` (single isomer, unassigned) [Example 306], under setting [8], the EC50 is less than 1 nM.

For the molecule `Nc1nc2c(s1)CCC2C(=O)Nc1ccc(CC2CCC(C(O)c3cccc(Cl)c3)N2)cc1` (single isomer, unassigned) [Example 310], the EC50 under setting [8] was less than 1 nM.

`Nc1nc2c(s1)CCC2C(=O)Nc1ccc(CC2CCC(C(O)c3cccc(Cl)c3)N2)cc1` (single isomer, unassigned) [Example 311]: the EC50 under setting [8] was 1 to 10 nM.

`Nc1nc(CC(=O)Nc2ccc(C[C@H]3CC[C@H]([C@H](O)c4ccccc4)N3)cc2)cs1` [Example 3, 2-(2-Amino-1,3-thiazol-4-yl)-N-[4-({(2R,5R)-[(R)hydroxy(phenyl)methyl]pyrrolidinyl}methyl)phenyl]acetamide]: under setting [3], the EC50 lay within 11 to 100 nM.

For `O=C(Cn1nc2ccccc2n1)Nc1ccc(C[C@@H]2CC[C@H]([C@H](O)c3ccccc3)N2)cc1` [Example 5], the EC50 under setting [9] lay within 1 to 10 nM.

Turning to `O=C(Cn1ncc2ccccc21)Nc1ccc(C[C@@H]2CC[C@H]([C@H](O)c3ccccc3)N2)cc1` [Example 6], under setting [9], the EC50 lay within 1 to 10 nM.

For `O=C(Nc1ccc(C[C@@H]2CC[C@H]([C@H](O)c3ccccc3)N2)cc1)c1ccccc1N1CCCC1` [Example 7], the EC50 under setting [9] fell in the range of 101 to 1000 nM.

Regarding `Cc1csc(CC(=O)Nc2ccc(C[C@@H]3CC[C@H]([C@H](O)c4ccccc4)N3)cc2)n1` [Example 8], the EC50 under setting [9] was 11 to 100 nM.

As for `Cc1nc(C)c(CC(=O)Nc2ccc(C[C@@H]3CC[C@H]([C@H](O)c4ccccc4)N3)cc2)s1` [Example 9], the EC50 under setting [9] lay in the range of 101 to 1000 nM.

Turning to `Cc1nc(C)c(CC(=O)Nc2ccc(C[C@@H]3CC[C@H]([C@H](O)c4ccccc4)N3)cc2)s1` [Example 10], the EC50 under setting [9] was 1 to 10 nM.

As to `O=C(Nc1ccc(C[C@@H]2CC[C@H]([C@H](O)c3ccccc3)N2)cc1)c1ccccc1-n1nccn1` [Example 11], the EC50 under setting [9] is 11 to 100 nM.

As for `O=C(Nc1ccc(C[C@@H]2CC[C@H]([C@H](O)c3ccccc3)N2)cc1)c1ccccc1-c1ncc[nH]1` [Example 12], under setting [9], the EC50 was 11 to 100 nM.

Consider `O=C(Nc1ccc(C[C@@H]2CC[C@H]([C@H](O)c3ccccc3)N2)cc1)c1ccccc1-c1nnn[nH]1` [Example 13], for which the EC50 under setting [9] lay in the range of 11 to 100 nM.

On to `O=C(Nc1ccc(C[C@@H]2CC[C@H]([C@H](O)c3ccccc3)N2)cc1)c1ccccc1-c1nc2ccccc2s1` [Example 14], for which the EC50 under setting [9] lay in the range of 101 to 1000 nM.

As to `Cc1nn(CC(=O)Nc2ccc(C[C@@H]3CC[C@H]([C@H](O)c4ccccc4)N3)cc2)c(=O)c2ccccc12` [Example 15], the EC50 under setting [9] was 1 to 10 nM.

As to `O=C(Cn1cnc2ccccc2c1=O)Nc1ccc(C[C@@H]2CC[C@H]([C@H](O)c3ccccc3)N2)cc1` [Example 16], under setting [9], the EC50 lay within 1 to 10 nM.

In the case of `O=C(Cn1c(=O)ncc2ccccc21)Nc1ccc(C[C@@H]2CC[C@H]([C@H](O)c3ccccc3)N2)cc1` [Example 17], the EC50 under setting [9] fell in the range of 1 to 10 nM.

Turning to `O=C(Cn1nc(Cc2ccccc2)c2ccccc2c1=O)Nc1ccc(C[C@@H]2CC[C@H]([C@H](O)c3ccccc3)N2)cc1` [Example 18], the EC50 under setting [9] is 1 to 10 nM.

For `O=C(Cn1ncccc1=O)Nc1ccc(C[C@@H]2CC[C@H]([C@H](O)c3ccccc3)N2)cc1` [Example 20], the EC50 under setting [9] lay in the range of 1 to 10 nM.

As for `Cc1nnc(CC(=O)Nc2ccc(C[C@@H]3CC[C@H]([C@H](O)c4ccccc4)N3)cc2)[nH]1` [Example 21], the EC50 under setting [9] lay in the range of 11 to 100 nM.

Take `O=C(Cc1nnc(-c2ccccc2)[nH]1)Nc1ccc(C[C@@H]2CC[C@H]([C@H](O)c3ccccc3)N2)cc1` [Example 22]: the EC50 under setting [9] is less than 1 nM.
